Results from ChEMBL document CHEMBL6182854, “Design, synthesis and biological evaluation of WEE1 degraders via HSP90-mediated targeting chimeras for target therapy of acute myeloid leukemia” (Eur J Med Chem, 2025).
pIC50: −log10 of the molar value. The source made the active and inactive calls. The calls are words filed in the database; no cut-off is given here.

How the values were obtained:
[1] = system: Primary acute myeloid leukemic cell; assay: Antitumor activity against patient derived human Primary acute myeloid leukemic cell xenografted in female NOD/SCID mouse assessed as decrease in huCD45+ cells in bone marrow at 3 mg/kg administered via tail vein in presence of AZD1775 and measured after 4 weeks by flow cytometric analysis; assay type: functional, organism-based
[2] = system: Primary acute myeloid leukemic cell; assay: Antitumor activity against patient derived human Primary acute myeloid leukemic cell xenografted in female NOD/SCID mouse assessed as decrease in huCD45+ cells in bone marrow at 5 mg/kg administered via tail vein and measured after 4 weeks by flow cytometric analysis; assay type: functional, organism-based
[3] = system: MV4-11; assay: Induction of cell cycle arrest in human MV4-11 cells assessed as accumulation of cells at G2/M phase incubated for 72 hrs by PI staining based flow cytometry; assay type: functional; conditions: dose 30.0 µM
[4] = system: MV4-11; assay: Antiproliferative activity against human MV4-11 cells assessed as cell viability incubated for 72 hrs by CCK-8 assay; assay type: functional, cell-based; conditions: MV4-11, 72 h
[5] = system: Primary acute myeloid leukemic cell; assay: Antitumor activity against patient derived human Primary acute myeloid leukemic cell xenografted in female NOD/SCID mouse assessed as decrease in huCD45+ cells in bone marrow at 5 mg/kg administered via tail vein and measured after 4 weeks in presence of AZD1775 by flow cytometric analysis; assay type: functional, organism-based
[6] = system: MV4-11; assay: HEMTAC activity against HSP90/WEE1 in human MV4-11 cells assessed as induction of WEE1 degradation at 10 uM incubated for 12 hrs by Western blotting analysis; assay type: cell-based
[7] = target: Heat shock protein HSP 90-alpha (Homo sapiens, UniProt P07900); assay: Inhibition of N-terminal HSP90alpha (unknown origin) ATPase activity incubated for 3 hrs by fluorescence polarization assay
[8] = system: Primary acute myeloid leukemic cell; assay: Antitumor activity against patient derived human Primary acute myeloid leukemic cell xenografted in female NOD/SCID mouse assessed as decrease in huCD45+ cells in spleen at 10 mg/kg administered via tail vein and measured after 4 weeks by flow cytometric analysis; assay type: functional, organism-based
[9] = system: MV4-11; assay: HEMTAC activity at HSP90/WEE1 in human MV4-11 cells assessed as induction of WEE1 degradation at 0.1 uM incubated for 12 hrs by Western blotting analysis; assay type: cell-based
[10] = system: MV4-11; assay: HEMTAC activity against HSP90/AKT in human MV4-11 cells assessed as induction of AKT degradation at 0.1 uM incubated for 12 hrs by Western blotting analysis; assay type: cell-based
[11] = target: Cyclin-dependent kinase 1 (Homo sapiens) (UniProt P06493); assay: Inhibition of CDK1 phosphorylation in human MV4-11 cells; assay type: cell-based
Cyclin-dependent kinase 1 (Homo sapiens), sequence (P06493 whole entry, looked up): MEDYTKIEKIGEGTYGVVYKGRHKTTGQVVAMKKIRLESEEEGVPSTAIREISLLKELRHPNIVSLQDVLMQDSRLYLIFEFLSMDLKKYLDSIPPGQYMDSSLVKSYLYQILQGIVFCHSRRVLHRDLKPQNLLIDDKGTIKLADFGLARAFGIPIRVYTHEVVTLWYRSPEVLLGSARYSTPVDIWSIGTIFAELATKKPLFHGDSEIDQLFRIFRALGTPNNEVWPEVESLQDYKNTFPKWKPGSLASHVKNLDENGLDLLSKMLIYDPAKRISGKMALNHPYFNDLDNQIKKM

[12] = Toxicity in female NOD/SCID mouse xenografted with patient derived human Primary acute myeloid leukemic cell assessed as increase in body weight at 10 mg/kg administered via tail vein and measured after 4 weeks; assay type: organism-based; conditions: in vivo, iv, 672 h
[13] = system: Primary acute myeloid leukemic cell; assay: Antitumor activity against patient derived human Primary acute myeloid leukemic cell xenografted in female NOD/SCID mouse assessed as reduction in splenomegaly at 10 mg/kg administered via tail vein and measured after 4 weeks; assay type: functional, organism-based
[14] = Antitumor activity against patient derived human Primary acute myeloid leukemic cell xenografted in female NOD/SCID mouse assessed as decrease in huCD45+ cells in bone marrow at 10 mg/kg administered via tail vein and measured after 4 weeks by flow cytometric analysis relative to control; assay type: functional; set-up: scale not given: the % may be the effect or the level left
[15] = Toxicity in female NOD/SCID mouse xenografted with patient derived human Primary acute myeloid leukemic cell assessed as heart damage at 10 mg/kg administered via tail vein by H and E staining based optical microscopic analysis; assay type: organism-based; conditions: in vivo, iv
[16] = Antiproliferative activity against patient derived human Primary acute myeloid leukemic cell assessed as inhibition of cell growth incubated for 72 hrs by CCK-8 assay; assay type: functional, cell-based
[17] = Toxicity in male BALB/C mouse assessed as myelosuppression by measuring platelet level at 10 mg/kg administered via tail vein and measured on day 3; assay type: organism-based; conditions: in vivo, iv, 72 h, time 3 day
[18] = system: MV4-11; assay: Upregulation of WEE1 mRNA expression in human MV4-11 cells incubated for 12 hrs by qRT-PCR analysis; assay type: functional, cell-based; conditions: dose 1-10 µM
[19] = Cytotoxicity against human PBMC cells assessed as reduction in cell viability up to 1000 nM incubated for 72 hrs by CCK-8 assay; assay type: toxicity, cell-based; conditions: 1 µM
[20] = Toxicity in female NOD/SCID mouse xenografted with patient derived human Primary acute myeloid leukemic cell assessed as spleen damage at 10 mg/kg administered via tail vein by H and E staining based optical microscopic analysis; assay type: organism-based; conditions: in vivo, iv
[21] = Toxicity in female NOD/SCID mouse xenografted with patient derived human Primary acute myeloid leukemic cell assessed as lung damage at 3 mg/kg administered via tail vein by H and E staining based optical microscopic analysis; assay type: organism-based; conditions: in vivo, iv
[22] = Toxicity in female NOD/SCID mouse xenografted with patient derived human Primary acute myeloid leukemic cell assessed as lung damage at 10 mg/kg administered via tail vein by H and E staining based optical microscopic analysis; assay type: organism-based; conditions: in vivo, iv
[23] = Toxicity in female NOD/SCID mouse xenografted with patient derived human Primary acute myeloid leukemic cell assessed as liver damage at 10 mg/kg administered via tail vein by H and E staining based optical microscopic analysis; assay type: organism-based; conditions: in vivo, iv
[24] = system: MV4-11; assay: Induction of cell cycle arrest in human MV4-11 cells assessed as accumulation of cells at G2/M phase at 30 nM incubated for 72 hrs by PI staining based flow cytometry; assay type: functional
[25] = system: Primary acute myeloid leukemic cell; assay: Antitumor activity against patient derived human Primary acute myeloid leukemic cell xenografted in female NOD/SCID mouse assessed as decrease in huCD45+ cells in bone marrow at 5 mg/kg administered via tail vein and measured after 4 weeks in presence of STA9090 by flow cytometric analysis; assay type: functional, organism-based
[26] = system: Primary acute myeloid leukemic cell; assay: Antitumor activity against patient derived human Primary acute myeloid leukemic cell xenografted in female NOD/SCID mouse assessed as decrease in huCD45+ cells in bone marrow at 3 mg/kg administered via tail vein in presence of STA9090 and measured after 4 weeks by flow cytometric analysis; assay type: functional, organism-based
[27] = system: MV4-11; assay: Induction of cell cycle arrest in human MV4-11 cells assessed as accumulation of cells at G2/M phase at 100 nM incubated for 72 hrs by PI staining based flow cytometry; assay type: functional
[28] = Toxicity in female NOD/SCID mouse xenografted with patient derived human Primary acute myeloid leukemic cell assessed as liver damage at 3 mg/kg administered via tail vein by H and E staining based optical microscopic analysis; assay type: organism-based; conditions: in vivo, iv
[29] = Toxicity in female NOD/SCID mouse xenografted with patient derived human Primary acute myeloid leukemic cell assessed as kidney damage at 10 mg/kg administered via tail vein by H and E staining based optical microscopic analysis; assay type: organism-based; conditions: in vivo, iv
[30] = system: Primary acute myeloid leukemic cell; assay: Antitumor activity against patient derived human Primary acute myeloid leukemic cell xenografted in female NOD/SCID mouse assessed as reduction in splenomegaly at 3 mg/kg administered via tail vein and measured after 4 weeks; assay type: functional, organism-based
[31] = Toxicity in female NOD/SCID mouse xenografted with patient derived human Primary acute myeloid leukemic cell assessed as increase in body weight at 3 mg/kg administered via tail vein and measured after 4 weeks; assay type: organism-based; conditions: in vivo, iv, 672 h
[32] = Toxicity in male BALB/C mouse assessed as myelosuppression by measuring leukocytes level at 10 mg/kg administered via tail vein and measured on day 3; assay type: organism-based; conditions: in vivo, iv, 72 h, time 3 day
[33] = Toxicity in female NOD/SCID mouse xenografted with patient derived human Primary acute myeloid leukemic cell assessed as spleen damage at 3 mg/kg administered via tail vein by H and E staining based optical microscopic analysis; assay type: organism-based; conditions: in vivo, iv
[34] = Toxicity in female NOD/SCID mouse xenografted with patient derived human Primary acute myeloid leukemic cell assessed as heart damage at 3 mg/kg administered via tail vein by H and E staining based optical microscopic analysis; assay type: organism-based; conditions: in vivo, iv
[35] = Toxicity in male BALB/C mouse assessed as myelosuppression by measuring neutrophil level at 10 mg/kg administered via tail vein and measured on day 3; assay type: organism-based; conditions: in vivo, iv, 72 h, time 3 day
[36] = system: Primary acute myeloid leukemic cell; assay: Antitumor activity against patient derived human Primary acute myeloid leukemic cell xenografted in female NOD/SCID mouse assessed as decrease in huCD45+ cells in spleen at 3 mg/kg administered via tail vein and measured after 4 weeks by flow cytometric analysis; assay type: functional, organism-based

SMILES: CC(C)c1cc(-c2n[nH]c(=O)n2-c2ccc3c(ccn3C)c2)c(O)cc1O [GANETESPIB]
- Activity [1]: inactive
- Activity [2]: inactive
- Activity [3]: Active
- pIC50 [4]: 8.82
- Activity [5]: inactive

SMILES: C=CCn1c(=O)c2cnc(Nc3ccc(N4CCN(CCCNC(=O)CCC(=O)Nc5ccc6c(c5)CCN6C(=O)c5cc(C(C)C)c(O)cc5O)CC4)cc3)nc2n1-c1cccc(C(C)(C)O)n1
- Activity [6]: Active
- pIC50 [4]: 7.32
- pIC50 [7]: 7.73

SMILES: C=CCn1c(=O)c2cnc(Nc3ccc(N4CCN(CCNC(=O)c5noc(-c6cc(C(C)C)c(O)cc6O)c5-c5ccc(CN6CCOCC6)cc5)CC4)cc3)nc2n1-c1cccc(C(C)(C)O)n1
- Activity [6]: Active
- pIC50 [4]: 7.00

SMILES: C=CCn1c(=O)c2cnc(Nc3ccc(N4CCN(CCCCCNC(=O)CN5CCN(Cc6ccc(-n7c(C(=O)NCC)nnc7-c7cc(C(C)C)c(O)cc7O)cc6)CC5)CC4)cc3)nc2n1-c1cccc(C(C)(C)O)n1
- Activity [6]: Active
- pIC50 [4]: 8.02

SMILES: C=CCn1c(=O)c2cnc(Nc3ccc(N4CCN(CCCNC(=O)c5noc(-c6cc(C(C)C)c(O)cc6O)c5-c5ccc(CN6CCOCC6)cc5)CC4)cc3)nc2n1-c1cccc(C(C)(C)O)n1
- Activity [8]: Active
- Activity [9]: Active
- Activity [10]: Minimal_effect
- inhibition [11]: Active
- Activity [12]: Non-toxic
- Activity [13]: Active
- Activity [14]: >70%
- Activity [6]: Active
- Activity [15]: Non-toxic
- pIC50 [16]: 7.39
- Activity [3]: Dose-dependent-effect
- pIC50 [4]: 8.10
- Activity [17]: Non-toxic
- Activity [18]: Active
- Activity [19]: Non-toxic
- Activity [20]: Non-toxic
- Activity [21]: Non-toxic
- Activity [22]: Non-toxic
- Activity [23]: Non-toxic
- pIC50 [7]: 7.86
- Activity [24]: Active

SMILES: CC(C)c1cc(C(=O)N2Cc3ccc(CN4CCN(C)CC4)cc3C2)c(O)cc1O [ONALESPIB]
- pIC50 [4]: 8.21
- pIC50 [7]: 8.00

SMILES: C=CCn1c(=O)c2cnc(Nc3ccc(N4CCN(CCCCCNC(=O)CCC(=O)Nc5ccc6c(c5)CCN6C(=O)c5cc(C(C)C)c(O)cc5O)CC4)cc3)nc2n1-c1cccc(C(C)(C)O)n1
- Activity [6]: Active
- pIC50 [4]: 7.42

SMILES: C=CCn1c(=O)c2cnc(Nc3ccc(N4CCN(CCCCNC(=O)CCC(=O)Nc5ccc6c(c5)CCN6C(=O)c5cc(C(C)C)c(O)cc5O)CC4)cc3)nc2n1-c1cccc(C(C)(C)O)n1
- Activity [6]: Active
- pIC50 [4]: 6.82

SMILES: C=CCn1c(=O)c2cnc(Nc3ccc(N4CCN(C)CC4)cc3)nc2n1-c1cccc(C(C)(C)O)n1 [ADAVOSERTIB]
- Activity [2]: inactive
- Activity [25]: inactive
- Activity [6]: inactive
- pIC50 [4]: 7.17
- Activity [26]: inactive
- Activity [18]: inactive
- Activity [27]: Active

SMILES: C=CCn1c(=O)c2cnc(Nc3ccc(N4CCN(CCCCCNC(=O)c5noc(-c6cc(C(C)C)c(O)cc6O)c5-c5ccc(CN6CCOCC6)cc5)CC4)cc3)nc2n1-c1cccc(C(C)(C)O)n1
- Activity [6]: Active
- pIC50 [4]: 7.62

SMILES: CCNC(=O)c1noc(-c2cc(C(C)C)c(O)cc2O)c1-c1ccc(CN2CCOCC2)cc1 [LUMINESPIB]
- Activity [3]: Active
- pIC50 [4]: 8.70

SMILES: C=CCn1c(=O)c2cnc(Nc3ccc(N4CCN(CCNC(=O)CN5CCN(Cc6ccc(-n7c(C(=O)NCC)nnc7-c7cc(C(C)C)c(O)cc7O)cc6)CC5)CC4)cc3)nc2n1-c1cccc(C(C)(C)O)n1
- Activity [6]: Active
- pIC50 [4]: 7.88

SMILES: C=CCn1c(=O)c2cnc(Nc3ccc(N4CCN(CCCCNC(=O)c5noc(-c6cc(C(C)C)c(O)cc6O)c5-c5ccc(CN6CCOCC6)cc5)CC4)cc3)nc2n1-c1cccc(C(C)(C)O)n1
- Activity [6]: Active
- pIC50 [4]: 7.35

SMILES: C=CCn1c(=O)c2cnc(Nc3ccc(N4CCN(CCNC(=O)CCC(=O)Nc5ccc6c(c5)CCN6C(=O)c5cc(C(C)C)c(O)cc5O)CC4)cc3)nc2n1-c1cccc(C(C)(C)O)n1
- Activity [6]: Active
- pIC50 [4]: 7.88

SMILES: C=CCn1c(=O)c2cnc(Nc3ccc(N4CCN(CCCCNC(=O)CN5CCN(Cc6ccc(-n7c(C(=O)NCC)nnc7-c7cc(C(C)C)c(O)cc7O)cc6)CC5)CC4)cc3)nc2n1-c1cccc(C(C)(C)O)n1
- Activity [28]: Non-toxic
- Activity [9]: Active
- Activity [10]: Minimal_effect
- inhibition [11]: Active
- Activity [29]: Non-toxic
- Activity [6]: Active
- Activity [30]: Active
- Activity [3]: Dose-dependent-effect
- Activity [31]: Non-toxic
- Activity [17]: Non-toxic
- Activity [32]: Non-toxic
- Activity [18]: Active
- Activity [19]: Non-toxic
- Activity [33]: Non-toxic
- Activity [21]: Non-toxic
- Activity [34]: Non-toxic
- Activity [35]: Non-toxic
- pIC50 [7]: 7.78
- Activity [24]: Active
- Activity [36]: Active
